Assays:
Nav1.5 WT = biological target: T1, Nav1.5 WT (Homo sapiens, UniProt Q14524); experiment: Microscale thermophoresis (MST) binding of diC8-PIP2 to GFP-tagged wild type Nav1.5 in cell lysate
T1 construct: expressed in transfected cells; host or cells: HEK293T cells, lysed; unpurified lysate supernatant used
Protocol: (§1) The method utilizes cell lysates obtained from transfected/infected cells that are lysed and incubated with varying concentrations of a water-soluble analogue of PIP2 commercially available as diC8-PI(4,5)P2, in a 384 well plate. Other phosphoinositides such as diC8PI(4)P of diC8PI(5)P can also be utilized. After a brief incubation (10-30 mins) samples are loaded onto capillary chips purchased from the company Nanotemper. Samples are run on the Nanotemper Monolith instrument. This instrument is advertised to detect green fluorescent protein (GFP) tagged proteins, however we have also used TFP (teal FP) tagged proteins. The instrument provides a short infra-red laser pulse which produces a short thermal gradient. Protein that is interacting with the lipid migrates differently through this thermal gradient and its movement is evaluated by the fluorescence of the GFP/TFP tag on the protein. Based on the concentration of the dic8-phosphoinositide, this resolves into a sigmoidal relationship that delivers an apparent affinity (Kd) value. A test ligand can be added to this assay at a known concentration that is at or close to its Kd for the channel. A shift in the channel's affinity for PIP2 in this assay can help indicate whether this test compound is a good drug candidate for further biological experiments.
(§2) Results. […]

[1] = biological target: T2, GFP-PHPLCδ (PIP2 biosensor) (Homo sapiens, UniProt P51178); experiment: MST binding of diC8-PIP2 to GFP-tagged PHPLCδ1 (positive control)
T2 construct: the pleckstrin homology domain of phospholipase C delta (GFP-PHPLCδ), a PIP2 biosensor; expressed in transfected cells; host or cells: cell lysate
T2 sequence (P51178 21-130 limits assumed): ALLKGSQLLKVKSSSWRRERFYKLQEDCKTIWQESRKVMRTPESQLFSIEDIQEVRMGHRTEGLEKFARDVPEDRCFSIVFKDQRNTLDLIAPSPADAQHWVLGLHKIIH
Protocol: as §1, §2

WT-Nav1.5 = biological target: T3, WT-Nav1.5 (Homo sapiens, UniProt Q14524); experiment: Whole-cell patch-clamp ILATE of wild type Nav1.5 in HEK293T cells with CRY2-5POCRL; type: cell-based; details: diC8-PIP2 in pipette
T3 construct: expressed in transfected cells; host or cells: HEK293T
T3 sequence (Q14524 whole entry): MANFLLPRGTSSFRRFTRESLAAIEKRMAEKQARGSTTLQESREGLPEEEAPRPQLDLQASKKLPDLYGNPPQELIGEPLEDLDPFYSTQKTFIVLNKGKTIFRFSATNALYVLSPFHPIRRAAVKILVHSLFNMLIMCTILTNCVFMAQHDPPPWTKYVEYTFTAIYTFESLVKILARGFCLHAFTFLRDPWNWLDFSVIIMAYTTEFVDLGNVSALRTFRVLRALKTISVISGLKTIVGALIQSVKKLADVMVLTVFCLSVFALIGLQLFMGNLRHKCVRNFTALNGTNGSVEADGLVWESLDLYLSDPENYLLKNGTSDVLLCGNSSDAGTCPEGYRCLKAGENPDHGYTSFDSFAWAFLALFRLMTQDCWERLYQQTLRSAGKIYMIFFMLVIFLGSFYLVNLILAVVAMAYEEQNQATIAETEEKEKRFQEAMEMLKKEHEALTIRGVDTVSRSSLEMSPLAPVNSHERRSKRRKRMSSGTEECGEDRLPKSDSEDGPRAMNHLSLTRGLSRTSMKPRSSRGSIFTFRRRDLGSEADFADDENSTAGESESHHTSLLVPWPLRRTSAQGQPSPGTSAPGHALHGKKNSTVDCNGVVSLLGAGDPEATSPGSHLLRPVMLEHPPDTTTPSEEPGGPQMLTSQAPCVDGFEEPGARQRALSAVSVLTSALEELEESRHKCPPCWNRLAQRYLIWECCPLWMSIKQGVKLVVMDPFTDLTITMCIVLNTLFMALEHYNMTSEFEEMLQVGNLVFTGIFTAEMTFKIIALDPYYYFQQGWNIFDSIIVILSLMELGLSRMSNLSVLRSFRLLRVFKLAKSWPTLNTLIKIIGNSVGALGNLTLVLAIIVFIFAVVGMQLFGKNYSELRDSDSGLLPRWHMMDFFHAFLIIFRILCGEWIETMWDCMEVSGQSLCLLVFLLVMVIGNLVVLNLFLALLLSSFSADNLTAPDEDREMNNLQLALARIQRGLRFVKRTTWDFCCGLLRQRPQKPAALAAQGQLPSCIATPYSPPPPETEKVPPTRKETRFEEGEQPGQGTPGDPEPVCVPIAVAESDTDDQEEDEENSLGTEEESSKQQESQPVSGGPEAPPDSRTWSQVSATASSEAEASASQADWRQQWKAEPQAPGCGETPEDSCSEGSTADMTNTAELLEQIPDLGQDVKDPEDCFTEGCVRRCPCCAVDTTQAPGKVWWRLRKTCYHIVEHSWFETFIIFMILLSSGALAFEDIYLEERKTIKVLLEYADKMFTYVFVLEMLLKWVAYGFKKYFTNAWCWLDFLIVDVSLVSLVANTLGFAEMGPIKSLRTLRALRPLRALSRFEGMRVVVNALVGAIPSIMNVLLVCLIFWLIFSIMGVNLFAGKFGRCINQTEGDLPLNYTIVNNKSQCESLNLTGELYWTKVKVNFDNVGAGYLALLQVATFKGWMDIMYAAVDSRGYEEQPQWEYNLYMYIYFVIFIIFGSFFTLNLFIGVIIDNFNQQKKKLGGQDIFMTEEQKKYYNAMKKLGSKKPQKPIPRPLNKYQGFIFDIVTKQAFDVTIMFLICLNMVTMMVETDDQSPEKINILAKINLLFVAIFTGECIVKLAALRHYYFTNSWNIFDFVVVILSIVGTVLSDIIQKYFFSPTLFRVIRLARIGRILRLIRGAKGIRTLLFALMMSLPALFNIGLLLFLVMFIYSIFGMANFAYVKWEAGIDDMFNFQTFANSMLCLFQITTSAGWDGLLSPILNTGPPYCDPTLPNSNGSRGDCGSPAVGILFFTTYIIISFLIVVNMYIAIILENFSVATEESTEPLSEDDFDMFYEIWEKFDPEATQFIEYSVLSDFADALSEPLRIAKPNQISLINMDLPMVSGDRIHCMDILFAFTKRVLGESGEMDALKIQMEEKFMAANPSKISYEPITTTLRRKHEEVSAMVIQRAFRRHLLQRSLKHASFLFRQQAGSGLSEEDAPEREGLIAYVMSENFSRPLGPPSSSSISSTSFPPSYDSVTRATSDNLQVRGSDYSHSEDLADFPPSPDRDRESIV
Protocol: This is opposed when by 200 μM diC8-PIP2 in the pipette. Comparisons are Students t-test, *** P<0.01, ****P0.001 for 4-6 cells per group.
Results. Our studies were designed to evaluate PIP2-regulation for Nav1.5 channelopathies from multiple perspectives. Given that there is a lack of structural data to identify where, or how many PIP2 molecules bind to Nav1.5, we performed a docking simulation to identify putative PIP2 binding sites in the open, rat and human Nav1.5 cryoEM structures (PDB: 6UZ3 and 7DTC) (56-58). We observed four potential PIP2 binding sites at the boundary between the inner leaflet of the membrane and the cytoplasm with one at the interface between each voltage sensor and the channel body. In each case, we noted electrostatic and hydrogen bond interactions between the headgroup of PIP2 and multiple disease associated residues. Among these, we elected to perform functional studies on Nav1.5-R1644C, an LQT3 mutant located between the S4 and S5 transmembrane segments of DIV. We expressed wild type Nav1.5 or Nav1.5-R1644C with Nav1β, CIBN-CAAX and CRY2-5POCRL in HEK293T cells and studied ILATE with and without optogenetic dephosphorylation of PIP2. In wild-type Nav1.5, ILATE was 0.25±0.1% of the peak (n=8) whereas in Nav1.5-R1664C, ILATE was 1.2±0.2% of peak (n=8, P<0.01, unpaired t-test comparison to WT). […]

IK1 (Kir2.1) = biological target: T4, IK1 (Kir2.1) (Rattus norvegicus, UniProt Q64273); details: diC8-PI(4,5)P2 in recording pipette, concentration dependent; RVCMs, 2% O2; cited from earlier work
T4 construct: endogenous in cells; host or cells: rat ventricular cardiomyocytes (RVCMs)
T4 sequence (Q64273 1-427): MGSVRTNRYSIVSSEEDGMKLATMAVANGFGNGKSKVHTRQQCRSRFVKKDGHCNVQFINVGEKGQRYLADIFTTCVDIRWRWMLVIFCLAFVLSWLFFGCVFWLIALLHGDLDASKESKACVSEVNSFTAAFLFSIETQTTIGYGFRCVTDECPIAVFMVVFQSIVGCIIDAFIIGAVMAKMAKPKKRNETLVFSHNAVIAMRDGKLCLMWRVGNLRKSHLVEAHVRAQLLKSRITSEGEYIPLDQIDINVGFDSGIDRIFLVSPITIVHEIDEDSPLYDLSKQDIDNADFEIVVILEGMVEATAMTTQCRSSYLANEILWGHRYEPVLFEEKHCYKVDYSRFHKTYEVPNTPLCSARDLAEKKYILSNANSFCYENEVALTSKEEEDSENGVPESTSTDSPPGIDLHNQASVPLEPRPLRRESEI

T1 sequence (Q14524 whole entry): as the sequence (Q14524 whole entry) above

In the case of `CCCCCCCC(=O)OC[C@H](COP(=O)(O)O[C@@H]1[C@H](O)[C@H](O)[C@@H](OP(=O)(O)O)[C@H](OP(=O)(O)O)[C@H]1O)OC(=O)CCCCCCC` [diC8-PIP2], the Kd (Nav1.5 WT) is reported as 0.045 ± 0.01 µM, the Kd [1] is reported as 0.13 µM and the “effect on ILATE increase when PIP2 is dephosphorylated” value (WT-Nav1.5) is reported as “opposed”. For the same compound, the “effect on hypoxic inhibition of IK1” value (IK1 (Kir2.1)) was “opposed”.

Source: US20240358727A1, “MICROSCALE THERMOPHORESIS TO EVALUATE CHANNEL LIPID INTERACTIONS AND METHODS OF TREATING NAV CHANNELS RELATED DISEASES” (Northeastern University, priority 2023, published 2024)
